Laboratory results taken from the supplement of paper PMC10307832.

Legend:
Experiment in all cases: relative viability (nuclei count vs DMSO), 5 days (fraction); higher = more cells survive
Bleomycin = compound: CC1=C(N=C(N=C1N)[C@H](CC(=O)N)NC[C@@H](C(=O)N)N)C(=O)N[C@@H]([C@H](C2=CN=CN2)OC3C(C(C(C(O3)CO)O)O)OC4C(C(C(C(O4)CO)O)OC(=O)N)O)C(=O)N[C@H](C)[C@H]([C@H](C)C(=O)N[C@@H]([C@@H](C)O)C(=O)NCCC5=NC(=CS5)C6=NC(=CS6)C(=O)NCCC[S+](C)C)O [Bleomycin]; details: main component drawn
Method in brief: (§1)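 For viability, nuclei in each treated well were divided by nuclei in vehicle wells and the median across plates was taken. Lung cancer cell lines in 1536-well plates were pinned with five library-drug doses (not always all listed) spaced by √10, cultured 5 days without medium change, and imaged at 4× after Hoechst staining, with plates passing only at control CV below 25% and at least one doubling.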

Etoposide = compound: COc1cc([C@@H]2c3cc4c(cc3[C@@H](O[C@@H]3O[C@@H]5CO[C@@H](C)O[C@H]5[C@H](O)[C@H]3O)[C@H]3COC(=O)[C@H]23)OCO4)cc(OC)c1O [Etoposide]
Method in brief: as §1

Bleomycin + Foretinib = compound: CC1=C(N=C(N=C1N)[C@H](CC(=O)N)NC[C@@H](C(=O)N)N)C(=O)N[C@@H]([C@H](C2=CN=CN2)OC3C(C(C(C(O3)CO)O)O)OC4C(C(C(C(O4)CO)O)OC(=O)N)O)C(=O)N[C@H](C)[C@H]([C@H](C)C(=O)N[C@@H]([C@@H](C)O)C(=O)NCCC5=NC(=CS5)C6=NC(=CS6)C(=O)NCCC[S+](C)C)O [Bleomycin] + COc1cc2c(Oc3ccc(NC(=O)C4(C(=O)Nc5ccc(F)cc5)CC4)cc3F)ccnc2cc1OCCCN1CCOCC1 [Foretinib] (partner 0.25 µM); details: main component drawn
Method in brief: (§2)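 Nuclei were stained with Hoechst during a one-step fixation (final 0.05% Triton X-100, 1% formaldehyde, 1 ug/ml Hoechst) carried out 5 days after dosing, then counted on 4× images. The cells, lung cancer lines in 1536-well plates, had been dosed by pin tool the day after seeding with one drug alone or a fixed anchor-drug dose plus five library-drug doses (not always all listed) in √10 steps. Relative viability is the nuclei count in treated wells divided by that in vehicle wells, and each value is the median of duplicate plates.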

Bleomycin + Lapatinib = compound: CC1=C(N=C(N=C1N)[C@H](CC(=O)N)NC[C@@H](C(=O)N)N)C(=O)N[C@@H]([C@H](C2=CN=CN2)OC3C(C(C(C(O3)CO)O)O)OC4C(C(C(C(O4)CO)O)OC(=O)N)O)C(=O)N[C@H](C)[C@H]([C@H](C)C(=O)N[C@@H]([C@@H](C)O)C(=O)NCCC5=NC(=CS5)C6=NC(=CS6)C(=O)NCCC[S+](C)C)O [Bleomycin] + CS(=O)(=O)CCNCc1ccc(-c2ccc3ncnc(Nc4ccc(OCc5cccc(F)c5)c(Cl)c4)c3c2)o1 [Lapatinib] (partner 2 µM); details: main component drawn
Method in brief: as §2

Question: What does the source list for UMC-11?
Answer: relative viability (Bleomycin; 0.01 µM): 0.936; relative viability (Bleomycin; 0.03162 µM): 0.918; relative viability (Bleomycin; 0.1 µM): 0.922; relative viability (Bleomycin; 0.3162 µM): 0.769; relative viability (Bleomycin; 1 µM): 0.496; relative viability (Etoposide; 0.01 µM): 0.999; relative viability (Etoposide; 0.03162 µM): 1.06; relative viability (Etoposide; 0.1 µM): 0.507; relative viability (Etoposide; 0.3162 µM): 0.607; relative viability (Etoposide; 1 µM): 0.343; relative viability (Bleomycin + Foretinib; first compound 0.01 µM): 0.93; relative viability (Bleomycin + Foretinib; first compound 0.03162 µM): 1.02; relative viability (Bleomycin + Foretinib; first compound 0.1 µM): 1.06; relative viability (Bleomycin + Foretinib; first compound 0.3162 µM): 0.742; relative viability (Bleomycin + Foretinib; first compound 1 µM): 0.574; relative viability (Bleomycin + Lapatinib; first compound 0.01 µM): 0.879; relative viability (Bleomycin + Lapatinib; first compound 0.03162 µM): 0.819; relative viability (Bleomycin + Lapatinib; first compound 0.1 µM): 0.971; relative viability (Bleomycin + Lapatinib; first compound 0.3162 µM): 0.737; relative viability (Bleomycin + Lapatinib; first compound 1 µM): 0.503
